From PubChem BioAssay AID264 (DTP/NCI, 2004) come the findings set out here.

This experiment concerns nude mice, LX-1 lung xenograft intrarenal, tumor weight T/C. The experiment in a line: NCI In Vivo Anticancer Drug Screen. Data for tumor model Human Lung LX-1 Xenograft (intrarenal inoculation) in NU/NU Swiss (nude) mice. To be noted: endpoint: mean tumor weight change, higher = larger tumour. The method, boiled down:
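Activity was scored by measuring tumors in treated animals and in vehicle controls, then reporting the treated result as a fraction of the control result.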

Where [1] appears, read: dose: 25.0 mg/kg/injection, schedule: Q01DX010 (sc), vehicle: saline.
[2] abbreviates: dose: 200.0 mg/kg/injection, schedule: Q01DX010 (sc), vehicle: saline.
Setting [3] is: dose: 75.0 mg/kg/injection, schedule: Q04DX003 (sc), vehicle: Klucel (hydroxypropylcellulose) (HPC).
The mark [4] stands for this setting: dose: 300.0 mg/kg/injection, schedule: Q04DX003 (sc), vehicle: saline with Tween-80.
Setting [5] is: dose: 150.0 mg/kg/injection, schedule: Q04DX003 (sc), vehicle: Klucel (hydroxypropylcellulose) (HPC).
[6] abbreviates: dose: 300.0 mg/kg/injection, schedule: Q04DX003 (sc), vehicle: Klucel (hydroxypropylcellulose) (HPC).
[7] abbreviates: dose: 50.0 mg/kg/injection, schedule: Q01DX010 (sc), vehicle: Klucel (hydroxypropylcellulose) (HPC).
Setting [8] is: dose: 100.0 mg/kg/injection, schedule: Q01DX010 (sc), vehicle: Klucel (hydroxypropylcellulose) (HPC).
Where [9] appears, read: dose: 600.0 mg/kg/injection, schedule: Q04DX003 (sc), vehicle: saline with Tween-80.
The mark [10] stands for this setting: dose: 1200.0 mg/kg/injection, schedule: Q04DX003 (sc), vehicle: saline with Tween-80.
Setting [11] is: dose: 2400.0 mg/kg/injection, schedule: Q04DX003 (sc), vehicle: saline with Tween-80.

Each structure is given as a SMILES string. Values joined by “and” are separate entries in the source; they are usually repeats but may differ in a detail not shown here. Identical values can stand only once. Results filed as inconclusive are left out.

As to `Nc1cc2[nH]cnc2c(=O)[nH]1`, the T/C by setting is: under setting [1], 25 % of control; under setting [2], 16 % of control and 18 % of control.

With `COc1cccc2c1C(=O)c1c(O)c3c(c(O)c1C2=O)C[C@@](O)(C(=O)CO)C[C@@H]3OC1CC(N)CC(C)O1` (stereo partly drawn), the T/C (dose: 1.5 mg/kg/injection, schedule: Q01DX010 (sc), vehicle: water) was 23 % of control.

Take `COc1cc2cc[n+](C)c(Cc3ccccc3)c2cc1OC`: the T/C runs as follows: (dose: 37.5 mg/kg/injection, schedule: Q04DX003 (sc), vehicle: Klucel (hydroxypropylcellulose) (HPC)) 88 % of control; under setting [3], 115 % of control.

Take `O=C1C=C[C@H](O)[C@@]2(CO)O[C@@H]12`: the T/C was 108 % of control (dose: 6.25 mg/kg/injection, schedule: Q04DX003 (sc), vehicle: saline with Tween-80) and 77 % of control (dose: 12.5 mg/kg/injection, schedule: Q04DX003 (sc), vehicle: saline with Tween-80).

For the compound `COC1C(OC(=O)/C=C/C=C/C=C/C=C/C(=O)O)CCC2(CO2)C1C1(C)OC1CC=C(C)C` (stereo not drawn), the T/C reads like this: (dose: 75.0 mg/kg/injection, schedule: Q04DX003 (sc), vehicle: saline) 76 % of control; (dose: 150.0 mg/kg/injection, schedule: Q04DX003 (sc), vehicle: saline) 81 % of control; (dose: 300.0 mg/kg/injection, schedule: Q04DX003 (sc), vehicle: saline) 75 % of control; (dose: 600.0 mg/kg/injection, schedule: Q04DX003 (sc), vehicle: saline) 66 % of control.

Turning to `C1CCC2C[N-]CCC2C1.C1CCC2C[N-]CCC2C1.C1CCC2C[N-]CCC2C1.C1CCC2C[N-]CCC2C1.[Cl][Rh][Cl]` (stereo not drawn), the T/C reads like this: (dose: 4.5 mg/kg/injection, schedule: Q04DX003 (sc), vehicle: saline with Tween-80) 64 % of control; (dose: 9.0 mg/kg/injection, schedule: Q04DX003 (sc), vehicle: saline with Tween-80) 89 % of control; (dose: 18.0 mg/kg/injection, schedule: Q04DX003 (sc), vehicle: saline with Tween-80) 63 % of control; (dose: 36.0 mg/kg/injection, schedule: Q04DX003 (sc), vehicle: saline with Tween-80) 60 % of control.

`CC1(C)OCC2OC=CC(=O)C2O1` (stereo not drawn): the T/C under setting [4] is 89 % of control.

On to `Cc1cc(Nc2ccc3c(c2)OCO3)c2cc3c(cc2n1)OCO3`, for which the T/C under setting [5] is 113 % of control; the T/C under setting [6] was 155 % of control; the T/C (dose: 1200.0 mg/kg/injection, schedule: Q04DX003 (sc), vehicle: Klucel (hydroxypropylcellulose) (HPC)) was 123 % of control.

For the compound `Cc1cc(N(CCOS(C)(=O)=O)CCOS(C)(=O)=O)ccc1C=Nc1ccc(-c2nc(Cc3ccccc3)sc2C)cc1`, the T/C under setting [7] was 12 % of control and 26 % of control; the T/C under setting [8] was 5 % of control (2×) and 11 % of control; the T/C (dose: 200.0 mg/kg/injection, schedule: Q01DX010 (sc), vehicle: Klucel (hydroxypropylcellulose) (HPC)) was 1 % of control; the T/C (dose: 400.0 mg/kg/injection, schedule: Q01DX010 (sc), vehicle: Klucel (hydroxypropylcellulose) (HPC)) is 1 % of control.

With `COC1=C(C)C(=O)C2=C(C1=O)C1C3CC4=C(C(=O)C(OC)=C(C)C4=O)C(CNC(=O)C(C)=O)N3C(C#N)C(C2)N1C` (stereo not drawn), the T/C was 111 % of control (dose: 1.0 mg/kg/injection, schedule: Q04DX003 (sc), vehicle: Klucel (hydroxypropylcellulose) (HPC)); 105 % of control (dose: 2.0 mg/kg/injection, schedule: Q04DX003 (sc), vehicle: Klucel (hydroxypropylcellulose) (HPC)); 59 % of control (dose: 4.0 mg/kg/injection, schedule: Q04DX003 (sc), vehicle: Klucel (hydroxypropylcellulose) (HPC)).

As for `CCC(CC)COC(=O)c1ccccc1C(=O)OCC(CC)CC`, the T/C by setting is: under setting [4], 56 % of control; under setting [9], 71 % of control; under setting [10], 64 % of control; under setting [11], 73 % of control.

As for `O=C1C(NCC(O)CO)=C(N2CC2)C(=O)C(NCC(O)CO)=C1N1CC1` (stereo not drawn), the T/C by setting is: (dose: 4.0 mg/kg/injection, schedule: Q04DX003 (ip), vehicle: saline) 102 % of control; (dose: 8.0 mg/kg/injection, schedule: Q04DX003 (ip), vehicle: saline) 84 % of control; (dose: 16.0 mg/kg/injection, schedule: Q04DX003 (ip), vehicle: saline) 61 % of control; (dose: 32.0 mg/kg/injection, schedule: Q04DX003 (ip), vehicle: saline) 50 % of control.

As to `COc1cc2c3c(cccc3c1)C(=O)N(CCN(C)C)C2=O`, the T/C (dose: 75.0 mg/kg/injection, schedule: Q04DX003 (sc), vehicle: saline with Tween-80) is 98 % of control; the T/C (dose: 150.0 mg/kg/injection, schedule: Q04DX003 (sc), vehicle: saline with Tween-80) is 115 % of control; the T/C under setting [4] was 53 % of control; the T/C under setting [9] is 79 % of control.

Regarding `CC[C@](O)(C(=O)O)c1cc2n(c(=O)c1CO)Cc1cc3ccccc3nc1-2`, the T/C reads like this: (dose: 16.0 mg/kg/injection, schedule: Q04DX003 (sc), vehicle: saline) -5 % of control; (dose: 31.25 mg/kg/injection, schedule: Q04DX003 (sc), vehicle: saline) 25 % of control; (dose: 62.5 mg/kg/injection, schedule: Q04DX003 (sc), vehicle: saline) 1 % of control; (dose: 125.0 mg/kg/injection, schedule: Q04DX003 (sc), vehicle: saline) -48 % of control.

For `CC(C)NC(=O)N(CCCCBr)N=O`, the T/C is, setting by setting: under setting [3], 95 % of control; under setting [5], 52 % of control; under setting [6], 44 % of control.

On to `CC1(C)OC(=O)N(CO)C1=O`, for which the T/C by setting is: under setting [1], 51 % of control; (dose: 100.0 mg/kg/injection, schedule: Q01DX010 (sc), vehicle: saline) 116 % of control; under setting [2], 110 % of control.

`COc1cc(C(C)(C)C)cc(OC)c1C(O)(c1c(OC)cc(C(C)(C)C)cc1OC)c1c(OC)cc(C(C)(C)C)cc1OC`: the T/C is 91 % of control (dose: 100.0 mg/kg/injection, schedule: Q04DX003 (sc), vehicle: saline with Tween-80); 68 % of control (dose: 200.0 mg/kg/injection, schedule: Q04DX003 (sc), vehicle: saline with Tween-80); 98 % of control (dose: 400.0 mg/kg/injection, schedule: Q04DX003 (sc), vehicle: saline with Tween-80); 86 % of control (dose: 800.0 mg/kg/injection, schedule: Q04DX003 (sc), vehicle: saline with Tween-80).

Consider `Cc1c2c(ccc3ccccc32)c[n+]2ccccc12`, for which the T/C by setting is: (dose: 3.13 mg/kg/injection, schedule: Q01DX010 (sc), vehicle: saline) 59 % of control; (dose: 6.25 mg/kg/injection, schedule: Q01DX010 (sc), vehicle: saline) 83 % of control; (dose: 12.5 mg/kg/injection, schedule: Q01DX010 (sc), vehicle: saline) 38 % of control.

Take `CCCNC1=C(C)C(=O)C2=C(C1=O)[C@H](COC(N)=O)[C@]1(OC)[C@@H]3N[C@@H]3CN21`: the T/C reads like this: (dose: 3.0 mg/kg/injection, schedule: Q04DX003 (sc), vehicle: suspension in saline) 32 % of control; (dose: 24.0 mg/kg/injection, schedule: Q04DX003 (sc), vehicle: suspension in saline) 5 % of control and 17 % of control and 28 % of control.

For the compound `[O-][n+]1c(CN2CCCCC2)nc2cccc3c2c1-c1ccccc1-3`, the T/C is 82 % of control under setting [4], 68 % of control under setting [9], 77 % of control under setting [10] and 109 % of control under setting [11].

For the compound `CCCC(=O)Oc1ccc(/C=N/NC(N)=S)nc1`, the T/C (dose: 50.0 mg/kg/injection, schedule: Q01DX010 (sc), vehicle: saline with Tween-80) was 91 % of control; the T/C (dose: 100.0 mg/kg/injection, schedule: Q01DX010 (sc), vehicle: saline with Tween-80) is 110 % of control; the T/C (dose: 200.0 mg/kg/injection, schedule: Q01DX010 (sc), vehicle: saline with Tween-80) was 40 % of control; the T/C (dose: 400.0 mg/kg/injection, schedule: Q01DX010 (sc), vehicle: saline with Tween-80) is 15 % of control.

Turning to `CCCCc1ccc(-n2c(C)c(COC(=O)NC)c(COC(=O)NC)c2C)cc1`, the T/C was 111 % of control (dose: 12.5 mg/kg/injection, schedule: Q01DX010 (sc), vehicle: Klucel (hydroxypropylcellulose) (HPC)); 92 % of control (dose: 25.0 mg/kg/injection, schedule: Q01DX010 (sc), vehicle: Klucel (hydroxypropylcellulose) (HPC)); 100 % of control under setting [7]; 104 % of control under setting [8].

As to `NC(=S)N/N=C\c1ncccc1OCc1cccc(N)c1`, the T/C runs as follows: under setting [4], 158 % of control; under setting [9], 159 % of control; under setting [10], 105 % of control; under setting [11], 96 % of control.
